Usually Ki stands for the equilibrium dissociation constant of an inhibitor or competing ligand from its target. A lower Ki goes with higher affinity. The term logP denotes the decadic logarithm of the partition coefficient of the neutral form, usually between octanol and water. High values mean higher lipophilicity, low ones lower lipophilicity.

Data on five molecules can be found in ChEMBL document CHEMBL1128153, “Acetylcholinesterase inhibition by alkaloids of the ant's venom Monomorium minutum” (Bioorg Med Chem Lett, 1995).

One data set has as its target Acetylcholinesterase (Electrophorus electricus, UniProt O42275).
The next data set relates to ant. Put plainly: Evaluated for the amount of compound present in ant's venom Monomorium minutum. Type of data set: functional.
The nature of data set [1]: Partition coefficient (logP). Type of data set: physicochemical. To be noted: octanol/water.

Chain of Acetylcholinesterase (O42275 whole entry): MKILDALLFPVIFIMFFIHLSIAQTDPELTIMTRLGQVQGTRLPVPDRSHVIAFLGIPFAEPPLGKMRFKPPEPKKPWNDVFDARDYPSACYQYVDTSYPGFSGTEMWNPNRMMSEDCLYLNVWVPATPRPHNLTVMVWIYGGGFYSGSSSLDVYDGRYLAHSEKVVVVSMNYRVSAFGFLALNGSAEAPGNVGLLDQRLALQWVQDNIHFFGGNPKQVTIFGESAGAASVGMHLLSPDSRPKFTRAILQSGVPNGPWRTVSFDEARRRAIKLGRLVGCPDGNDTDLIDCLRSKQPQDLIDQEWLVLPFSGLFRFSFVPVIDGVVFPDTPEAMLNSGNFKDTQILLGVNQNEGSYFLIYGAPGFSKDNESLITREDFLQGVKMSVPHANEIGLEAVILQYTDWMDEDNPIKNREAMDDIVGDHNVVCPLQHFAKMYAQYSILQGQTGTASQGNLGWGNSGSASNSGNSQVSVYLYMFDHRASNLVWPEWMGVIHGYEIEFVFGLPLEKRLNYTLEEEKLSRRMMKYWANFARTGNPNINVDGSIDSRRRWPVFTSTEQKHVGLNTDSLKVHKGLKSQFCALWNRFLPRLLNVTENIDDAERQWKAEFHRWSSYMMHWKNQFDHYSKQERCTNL
Description for Acetylcholinesterase: Tested for in vitro inhibition of acetylcholinesterase

`C=CCCCCCCCC1CCC(CCCCC=C)N1` (stereo not drawn) registered a Ki on Acetylcholinesterase of 2500 nM. In the data set on ant, this molecule had a Venom of 29.8%. For the same molecule, the logP in data set [1] amounted to 7.32.
On the same counts, the results for `C=CCCCCC1=NC(CCCCCCCCC)CC1` (stereo not drawn) are 5000 nM, 4.4% and 8.39.
`C=CCCCCCCCC1=NC(CCCCC=C)CC1` (stereo not drawn) registered a Ki at Acetylcholinesterase of 13000 nM. For the same molecule, in the data set with ant, the Venom is 0.2%. The molecule also gave a logP in data set [1] of 8.02.
Molecule `CN(C)C(=O)Oc1cccc([N+](C)(C)C)c1` [NEOSTIGMINE BROMIDE] registered a Ki on Acetylcholinesterase of 1000 nM.
Molecule `C=CCCCCC1CCC(CCCCCCCCC)N1` (stereo not drawn) returned a Ki at Acetylcholinesterase of 1500 nM. The same molecule had a Venom in the data set on ant of 58.7%. In data set [1], this molecule displayed a logP of 7.68.
